Columns and labels:
[1] = system: Rattus norvegicus; assay: In vivo suppression of the conditioned avoidance response (CAR) in rats after po administration of the compound; type: functional
[2] = system: Mus musculus; assay: In vivo inhibition of the apomorphine-induced climbing behavior in mice; type: functional
[3] = target: T1, 5-hydroxytryptamine receptor 1A (Homo sapiens, UniProt P08908); assay: Binding affinity for 5-hydroxytryptamine 1A receptor determined using [3H]8-OH-DPAT as radioligand
T1 sequence (P08908 whole entry): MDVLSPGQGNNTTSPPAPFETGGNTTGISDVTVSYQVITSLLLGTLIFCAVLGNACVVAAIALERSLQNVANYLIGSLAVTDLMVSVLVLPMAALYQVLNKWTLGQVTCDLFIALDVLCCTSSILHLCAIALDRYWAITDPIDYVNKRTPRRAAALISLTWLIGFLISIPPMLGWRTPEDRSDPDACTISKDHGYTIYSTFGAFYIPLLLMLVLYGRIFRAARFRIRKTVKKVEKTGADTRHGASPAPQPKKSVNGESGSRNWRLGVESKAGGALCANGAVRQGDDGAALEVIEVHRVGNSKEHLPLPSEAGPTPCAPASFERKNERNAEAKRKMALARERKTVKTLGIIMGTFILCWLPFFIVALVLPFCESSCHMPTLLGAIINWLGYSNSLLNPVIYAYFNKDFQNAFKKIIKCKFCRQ

[4] = system: Rattus norvegicus; assay: Tested for occurrence of lower lip retraction in rat after po administration of the compound; type: functional
[5] = system: Rattus norvegicus; assay: In vivo suppression of the conditioned avoidance response (CAR) in rats after ip administration of the compound; type: functional

Structure (SMILES)	Ki [3] [nM]	further results
O=C(CCCN1CCC(O)(c2ccc(Cl)cc2)CC1)c1ccc(F)cc1 [HALOPERIDOL]		ED50 [1]: 0.3 mg/kg; ED50 [2]: 0.2 mg/kg
c1ccc(-c2cccc(CN3CCN(c4cccc5ccoc45)CC3)c2)cc1	38	
O=c1[nH]c2cccc(N3CCN(Cc4cccc(-c5ccccc5)c4)CC3)c2o1 [BIFEPRUNOX]	9.3	ED50 [4]: 10 mg/kg; ED50 [1]: 0.8 mg/kg; ED50 [2]: 0.1 mg/kg
O=c1[nH]c2cccc(N3CCN(Cc4ccnc(-c5ccc(F)cc5)c4)CC3)c2o1	21	
Oc1nc2cccc(N3CCN(Cc4cc(-c5ccc(F)cc5)ccn4)CC3)c2o1	16	ED50 [4]: > 30 mg/kg; ED50 [1]: < 10 mg/kg; ED50 [2]: 0.1 mg/kg
c1ccc(-c2cccc(CN3CCN(c4cccc5c4CCCN5)CC3)c2)cc1	85	
N#Cc1ccccc1-c1cccc(CN2CCN(c3cccc4nc(O)oc34)CC2)c1	32	
Cc1nc2n(c(=O)c1CCN1CCC(c3noc4cc(F)ccc34)CC1)CCCC2 [RISPERIDONE]		ED50 [1]: 1 mg/kg; ED50 [2]: 0.1 mg/kg
Oc1nc2cccc(N3CCN(Cc4cccc(-c5ccc(F)cc5)c4)CC3)c2o1	14	
Oc1nc2cccc(N3CCN(Cc4ccc(O)c(-c5ccccc5)c4)CC3)c2o1	7.6	ED50 [4]: > 30 mg/kg; ED50 [5]: 20 mg/kg; ED50 [2]: 7 mg/kg
c1ccc(-c2cccc(CN3CCN(c4cccc5c4OCCN5)CC3)c2)cc1	26	
c1ccc(-c2cccc(CN3CCN(c4cccc5c4OCO5)CC3)c2)cc1	15	
Oc1nc2cccc(N3CCN(Cc4cccc(-c5ccc(F)cc5)n4)CC3)c2o1	200	
Oc1nc2cccc(N3CCN(Cc4cncc(-c5ccccc5)c4)CC3)c2o1	7.8	ED50 [4]: 3 mg/kg; ED50 [1]: 0.4 mg/kg; ED50 [2]: 0.1 mg/kg
CN1CCN(C2=Nc3cc(Cl)ccc3Nc3ccccc32)CC1 [CLOZAPINE]		ED50 [1]: 32 mg/kg; ED50 [2]: 22 mg/kg
COc1cccc(-c2cccc(CN3CCN(c4cccc5[nH]c(=O)oc45)CC3)c2)c1	21	
N#Cc1cccc(-c2cccc(CN3CCN(c4cccc5nc(O)oc45)CC3)c2)c1	23	
O=c1[nH]c2cccc(N3CCN(Cc4cccc(-c5cccs5)c4)CC3)c2o1	32	
O=C1COc2c(cccc2N2CCN(Cc3cccc(-c4ccccc4)c3)CC2)N1	49	

Continued by falling Ki [3], values first:

Ki [3] [nM]	Structure (SMILES)	further results
130	Cn1c(=O)oc2c(N3CCN(Cc4cccc(-c5ccccc5)c4)CC3)cccc21	
42	Oc1nc2cccc(N3CCN(Cc4cccc(-c5cccc(Cl)c5)c4)CC3)c2o1	
41	O=c1[nH]c2cccc(N3CCN(Cc4cc(-c5ccccc5)ccc4F)CC3)c2o1	
35	Cc1cccc(-c2cccc(CN3CCN(c4cccc5[nH]c(=O)oc45)CC3)c2)c1	
17	Oc1nc2cccc(N3CCN(Cc4cccc(-c5ccsc5)c4)CC3)c2o1	ED50 [4]: > 30 mg/kg; ED50 [5]: > 20 mg/kg; ED50 [2]: 0.2 mg/kg
7.9	O=C(NCCN1CCN(c2cccc3nc(O)oc23)CC1)c1ccc(F)cc1	
1.5	Fc1ccc(-c2ccc(CN3CCN(c4cccc5ccoc45)CC3)[nH]2)cc1 [ELOPIPRAZOLE]	
1	COc1ccccc1N1CCN(CCNC(=O)c2ccc(F)cc2)CC1	
0.91	c1ccc(-c2cccc(CN3CCN(c4cccc5c4OCCO5)CC3)c2)cc1	

From ChEMBL document CHEMBL1133937, “New 1-aryl-4-(biarylmethylene)piperazines as potential atypical antipsychotics sharing dopamine D(2)-receptor and serotonin 5-HT(1A)-receptor affinities” (Bioorg Med Chem Lett, 2001)
